The values that follow come from PMC11062575 (Science Advances, 2024).

For one experiment, the target named is human TRPV3 C496A mutant (Homo sapiens, UniProt Q8NET8, C496A). Conditions: C496A vs wild type.
For a further experiment, the system named is mouse TRPV3 Y564A. To be noted: mouse TRPV3 Y564A vs wild type; cited from earlier work.
The target of the next experiment is T1, wild-type human TRPV3 (Homo sapiens, UniProt Q8NET8).
T1 sequence (Q8NET8 1-791 isoform Q8NET8-2): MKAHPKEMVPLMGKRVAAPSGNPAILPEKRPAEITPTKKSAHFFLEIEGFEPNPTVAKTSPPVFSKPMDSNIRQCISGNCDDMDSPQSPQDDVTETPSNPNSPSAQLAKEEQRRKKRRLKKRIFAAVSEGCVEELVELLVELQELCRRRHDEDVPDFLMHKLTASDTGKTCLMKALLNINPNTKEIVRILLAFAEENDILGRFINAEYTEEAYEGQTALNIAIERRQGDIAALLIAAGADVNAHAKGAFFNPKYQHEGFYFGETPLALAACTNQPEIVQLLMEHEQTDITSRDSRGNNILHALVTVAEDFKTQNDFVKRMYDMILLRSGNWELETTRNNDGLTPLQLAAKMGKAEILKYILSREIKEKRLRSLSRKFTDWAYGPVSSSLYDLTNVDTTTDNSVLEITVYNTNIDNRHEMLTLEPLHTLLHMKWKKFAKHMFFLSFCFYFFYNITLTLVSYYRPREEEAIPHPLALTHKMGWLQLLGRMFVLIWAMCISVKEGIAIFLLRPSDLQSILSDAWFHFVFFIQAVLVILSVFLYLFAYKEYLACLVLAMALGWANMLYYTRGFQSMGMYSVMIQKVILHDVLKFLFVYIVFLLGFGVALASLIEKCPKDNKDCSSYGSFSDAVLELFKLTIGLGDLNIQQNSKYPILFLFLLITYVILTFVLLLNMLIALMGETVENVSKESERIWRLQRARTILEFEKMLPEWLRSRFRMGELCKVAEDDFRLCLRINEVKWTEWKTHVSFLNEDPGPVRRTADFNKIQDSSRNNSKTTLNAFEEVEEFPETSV
The experiment in a line: Fura-2AM ratiometric Ca2+ uptake measurements, wild-type TRPV3. Type of experiment: cell-based.

In another experiment the target is T2, human TRPV3 L557A mutant (Homo sapiens, UniProt Q8NET8, L557A).
T2 sequence (Q8NET8 1-791 isoform Q8NET8-2 L557A): T1 sequence (Q8NET8 1-791 isoform Q8NET8-2) with L557A
Kind of experiment: Fura-2AM Ca2+ uptake measurements, L557A mutant. The format is cell-based.

The structures appear in SMILES notation. Substitutions are numbered along the chain they refer to.

human TRPV3 C496A mutant, sequence (Q8NET8 1-791 isoform Q8NET8-2 C496A): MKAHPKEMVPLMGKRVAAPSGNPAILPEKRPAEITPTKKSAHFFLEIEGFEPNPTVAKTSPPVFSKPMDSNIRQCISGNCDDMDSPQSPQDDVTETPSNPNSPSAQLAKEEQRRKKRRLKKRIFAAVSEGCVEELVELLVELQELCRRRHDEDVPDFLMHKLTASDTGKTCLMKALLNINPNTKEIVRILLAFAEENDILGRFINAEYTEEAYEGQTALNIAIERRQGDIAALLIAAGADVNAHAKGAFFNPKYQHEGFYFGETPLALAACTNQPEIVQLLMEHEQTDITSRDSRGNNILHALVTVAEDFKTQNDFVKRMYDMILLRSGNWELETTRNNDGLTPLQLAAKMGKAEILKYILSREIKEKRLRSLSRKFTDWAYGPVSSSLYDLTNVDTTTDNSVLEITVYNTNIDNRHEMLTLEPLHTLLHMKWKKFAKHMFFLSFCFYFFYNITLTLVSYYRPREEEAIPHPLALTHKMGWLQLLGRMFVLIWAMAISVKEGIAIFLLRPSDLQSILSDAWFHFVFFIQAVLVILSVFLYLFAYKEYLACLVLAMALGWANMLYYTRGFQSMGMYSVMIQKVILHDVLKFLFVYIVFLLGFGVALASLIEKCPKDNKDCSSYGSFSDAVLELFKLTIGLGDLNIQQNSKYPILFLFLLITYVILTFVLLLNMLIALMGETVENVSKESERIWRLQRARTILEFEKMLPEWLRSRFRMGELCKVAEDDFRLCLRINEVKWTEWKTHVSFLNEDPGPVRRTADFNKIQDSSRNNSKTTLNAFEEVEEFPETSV

With `NCCOB(c1ccccc1)c1ccccc1` [2-APB, 2-aminoethoxydiphenylborane], the “activating potency enhanced compared to wild-type TRPV3” value at human TRPV3 C496A mutant is ~ 3 fold. In the experiment with mouse TRPV3 Y564A, the “increase in 2-APB potency on Y564 substitution with alanine” value was 20 fold.
For `CCCc1cc(O)c2c(c1)OC(C)(C)[C@@H]1CCC(C)=C[C@@H]21` [THCV, tetrahydrocannabivarin], the values for the EC50 at wild-type human TRPV3 and on human TRPV3 L557A mutant were 6.1 ± 0.5 µM and 81 ± 1 nM, respectively. Besides, the “maximum absolute value of the fluorescence intensity ratio (F340/F380)” value is listed as 5.29 ± 0.04 on wild-type human TRPV3 (wild type, n = 3) and 5.58 ± 0.47 on human TRPV3 L557A mutant (L557A, n = 3, P = 0.61 vs wild type).

For orientation: EC50 means the concentration at which the effect is half-maximal. A low value points to higher potency in that assay.
